Target: phosphorylated form of full length BTK (active BTK) (Homo sapiens (Human), UniProt Q06187)
Assay: Mobility shift assay (MSA, Caliper LabChip), active BTK assay
Type: biochemical
Conditions: Assay type B (MSA using active BTK)
Procedure: The active BTK assay consists of phosphorylated form of full length BTK. […] The enzyme inhibitor complexes is incubated, before the kinase activation reaction is initiated.
Mobility Shift Assay (MSA)
The active BTK assay consisted of phosphorylated form of full length BTK. […] The enzyme inhibitor complexes was incubated for 30 minutes at the room temperature and the kinase activation reaction was initiated by the addition of 1 μM Srctide peptide substrate and […].

Chain of phosphorylated form of full length BTK (active BTK) (Q06187 whole entry): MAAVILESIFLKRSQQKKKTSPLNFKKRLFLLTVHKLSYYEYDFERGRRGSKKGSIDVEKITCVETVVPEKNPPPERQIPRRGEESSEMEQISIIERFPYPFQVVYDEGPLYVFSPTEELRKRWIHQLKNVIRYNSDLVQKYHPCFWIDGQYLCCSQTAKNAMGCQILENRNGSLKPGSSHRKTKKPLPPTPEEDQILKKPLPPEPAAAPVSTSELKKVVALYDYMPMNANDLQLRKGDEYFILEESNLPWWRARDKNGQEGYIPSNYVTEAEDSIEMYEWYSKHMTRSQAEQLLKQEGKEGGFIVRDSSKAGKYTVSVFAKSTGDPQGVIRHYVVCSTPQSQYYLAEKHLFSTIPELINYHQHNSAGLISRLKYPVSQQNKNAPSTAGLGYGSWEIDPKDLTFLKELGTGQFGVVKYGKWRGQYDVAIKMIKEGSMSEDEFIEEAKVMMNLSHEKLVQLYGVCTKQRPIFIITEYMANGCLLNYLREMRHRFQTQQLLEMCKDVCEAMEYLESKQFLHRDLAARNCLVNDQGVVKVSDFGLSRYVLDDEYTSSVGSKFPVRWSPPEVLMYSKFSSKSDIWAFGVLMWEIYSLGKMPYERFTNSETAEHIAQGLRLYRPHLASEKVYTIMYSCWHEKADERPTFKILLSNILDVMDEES

Row | Structure (SMILES) | IC50 [nM]
1 | CC(O)CCCCCC(=O)N[C@H]1CC[C@@H](Nc2ncnc3[nH]cc(C(=O)c4ccc(Oc5ccccc5)cc4Cl)c23)CC1 (mixture of isomers) [Compound I-214, rac-N-(cis-4-((5-(2-chloro-4-phenoxybenzoyl)-7H-pyrrolo[2,3-d]pyrimidin-4-yl)amino)cyclohexyl)-7-hydroxyoctanamide] | 7.4
2 | C[C@H](O)C(=O)N(C)[C@H]1CC[C@@H](Nc2ncnc3[nH]cc(C(=O)c4ccccc4Cl)c23)CC1 [Compound I-106, (S)—N-(cis-4-((5-(2-chlorobenzoyl)-7H-pyrrolo[2,3-d]pyrimidin-4-yl)amino)cyclohexyl)-2-hydroxy-N-methylpropanamide] | 4.6
3 | COC[C@]1(O)CC[C@H](Nc2ncnc3[nH]cc(C(=O)c4ccccc4Cl)c23)CC1 [Compound I-107, (2-chlorophenyl)(4-((trans-4-hydroxy-4-(methoxymethyl)cyclohexyl)amino)-7H-pyrrolo[2,3-d]pyrimidin-5-yl)methanone] | 12
4 | COC[C@]1(O)CC[C@@H](Nc2ncnc3[nH]cc(C(=O)c4ccccc4Cl)c23)CC1 [Compound I-108, (2-chlorophenyl)(4-((cis-4-hydroxy-4-(methoxymethyl)cyclohexyl)amino)-7H-pyrrolo[2,3-d]pyrimidin-5-yl)methanone] | 7
5 | COC1CN([C@H]2CC[C@H](Nc3ncnc4[nH]cc(C(=O)c5ccccc5Cl)c34)CC2)C1 [Compound I-110, (2-chlorophenyl)(4-((trans-4-(3-methoxyazetidin-1-yl)cyclohexyl)amino)-7H-pyrrolo[2,3-d]pyrimidin-5-yl)methanone] | 16
6 | CC1(O)CN([C@H]2CC[C@H](Nc3ncnc4[nH]cc(C(=O)c5ccccc5Cl)c34)CC2)C1 [Compound I-112, (2-chlorophenyl)(4-((trans-4-(3-hydroxy-3-methylazetidin-1-yl)cyclohexyl)amino)-7H-pyrrolo[2,3-d]pyrimidin-5-yl)methanone] | 18
7 | CC1(N)CN([C@H]2CC[C@@H](Nc3ncnc4[nH]cc(C(=O)c5ccccc5Cl)c34)CC2)C1 [Compound I-113, (4-((cis-4-(3-amino-3-methylazetidin-1-yl)cyclohexyl)amino)-7H-pyrrolo[2,3-d]pyrimidin-5-yl)(2-chlorophenyl)methanone] | 3.6
8 | CC1(N)CN([C@H]2CC[C@H](Nc3ncnc4[nH]cc(C(=O)c5ccccc5Cl)c34)CC2)C1 [Compound I-114, (4-((trans-4-(3-amino-3-methylazetidin-1-yl)cyclohexyl)amino)-7H-pyrrolo[2,3-d]pyrimidin-5-yl)(2-chlorophenyl)methanone] | 23
9 | CC(C)(O)C(=O)N[C@H]1CC[C@@H](Nc2ncnc3[nH]cc(C(=O)c4ccccc4Cl)c23)CC1 [Compound I-115, N-(cis-4-((5-(2-chlorobenzoyl)-7H-pyrrolo[2,3-d]pyrimidin-4-yl)amino)cyclohexyl)-2-hydroxy-2-methylpropanamide] | 5.8
10 | CC(=O)N[C@@H](C)[C@@H]1CC[C@@H](Nc2ncnc3[nH]cc(C(=O)c4ccccc4Cl)c23)CO1 [Compound I-116, N—((S)-1-((2S,5R)-5-((5-(2-chlorobenzoyl)-7H-pyrrolo[2,3-d]pyrimidin-4-yl)amino)tetrahydro-2H-pyran-2-yl)ethyl)acetamide] | 5.9
11 | CC(=O)N[C@@H](C)[C@@H]1CC[C@@H](Nc2ncnc3[nH]cc(C(=O)c4ccccc4C)c23)CO1 [Compound I-117, N—((S)-1-((2S,5R)-5-((5-(2-methylbenzoyl)-7H-pyrrolo[2,3-d]pyrimidin-4-yl)amino)tetrahydro-2H-pyran-2-yl)ethyl)acetamide] | 5.9
12 | CC(=O)NC[C@@H]1CC[C@@H](Nc2ncnc3[nH]cc(C(=O)c4ccccc4Cl)c23)CO1 [Compound I-118, N-(((2S,5R)-5-((5-(2-chlorobenzoyl)-7H-pyrrolo[2,3-d]pyrimidin-4-yl)amino)tetrahydro-2H-pyran-2-yl)methyl)acetamide] | 4.4
13 | CC(=O)NC[C@@H]1CC[C@@H](Nc2ncnc3[nH]cc(C(=O)c4ccccc4C)c23)CO1 [Compound I-119, N-(((2S,5R)-5-((5-(2-methylbenzoyl)-7H-pyrrolo[2,3-d]pyrimidin-4-yl)amino)tetrahydro-2H-pyran-2-yl)methyl)acetamide] | 5.1
14 | CS(=O)(=O)Nc1cccc(C(=O)c2c[nH]c3ncnc(N[C@H]4CC[C@@H](N)CC4)c23)c1 [Compound I-120, N-(3-(4-((cis-4-aminocyclohexyl)amino)-7H-pyrrolo[2,3-d]pyrimidine-5-carbonyl)phenyl)methanesulfonamide] | 121
15 | N[C@H]1CC[C@@H](Nc2ncnc3[nH]cc(C(=O)c4cccc(NS(=O)(=O)c5ccccc5)c4)c23)CC1 [Compound I-121, N-(3-(4-((cis-4-aminocyclohexyl)amino)-7H-pyrrolo[2,3-d]pyrimidine-5-carbonyl)phenyl)benzenesulfonamide] | 7.3

Compounds with a lower IC50, results first:

Row | IC50 [nM] | Structure (SMILES)
16 | 3.2 | COC1CN([C@H]2CC[C@@H](Nc3ncnc4[nH]cc(C(=O)c5ccccc5Cl)c34)CC2)C1 [Compound I-109, (2-chlorophenyl)(4-((cis-4-(3-methoxyazetidin-1-yl)cyclohexyl)amino)-7H-pyrrolo[2,3-d]pyrimidin-5-yl)methanone]
17 | 3.2 | N[C@H]1CC[C@@H](Nc2ncnc3[nH]cc(C(=O)c4ccc(Oc5ccccc5)cc4)c23)CC1 [Compound I-130, (4-((cis-4-aminocyclohexyl)amino)-7H-pyrrolo[2,3-d]pyrimidin-5-yl)(4-phenoxyphenyl)methanone]
18 | 3 | CC1(O)CN([C@H]2CC[C@@H](Nc3ncnc4[nH]cc(C(=O)c5ccccc5Cl)c34)CC2)C1 [Compound I-111, (2-chlorophenyl)(4-((cis-4-(3-hydroxy-3-methylazetidin-1-yl)cyclohexyl)amino)-7H-pyrrolo[2,3-d]pyrimidin-5-yl)methanone]
19 | 2.9 | CC(O)CCCCC(=O)N[C@H]1CC[C@@H](Nc2ncnc3[nH]cc(C(=O)c4ccc(Oc5ccccc5)cc4Cl)c23)CC1 (mixture of isomers) [Compound I-212, rac-N-(cis-4-((5-(2-chloro-4-phenoxybenzoyl)-7H-pyrrolo[2,3-d]pyrimidin-4-yl)amino)cyclohexyl)-6-hydroxyheptanamide]
20 | 1.8 | O=C(c1ccc(Oc2ccccc2)cc1Cl)c1c[nH]c2ncnc(N[C@H]3CC[C@@H](O)[C@@H](O)C3)c12 (racemic) [Compound I-179, rac-(2-chloro-4-phenoxyphenyl)(4-(((1S,3S,4R)-3,4-dihydroxycyclohexyl)amino)-7H-pyrrolo[2,3-d]pyrimidin-5-yl)methanone]
21 | 1.8 | O=C(c1ccc(Oc2ccccc2)cc1Cl)c1c[nH]c2ncnc(N[C@H]3CC[C@H](O)[C@H](O)C3)c12 (racemic) [Compound I-180, rac-(2-chloro-4-phenoxyphenyl)(4-(((1S,3R,4S)-3,4-dihydroxycyclohexyl)amino)-7H-pyrrolo[2,3-d]pyrimidin-5-yl)methanone]
22 | 1.63 | CC(=O)NC[C@@H]1CC[C@@H](Nc2ncnc3[nH]cc(C(=O)c4ccc(Oc5ccccc5)cc4Cl)c23)CO1 [Compound I-127, N-(((2S,5R)-5-((5-(2-chloro-4-phenoxybenzoyl)-7H-pyrrolo[2,3-d]pyrimidin-4-yl)amino)tetrahydro-2H-pyran-2-yl)methyl)acetamide]

Source: patent US11020398B2, “Amino-pyrrolopyrimidinone compounds and methods of use thereof” (ArQule, Inc., priority 2016, dated 2021)
